{"source": "patent US8092845B2", "about": "“Anti-inflammatory extract and agent and method for the production thereof” (Otkrytoe Aktsionernoe Obschestvo Zavod Ekologicheskoy …, priority 2004, dated 2012)", "key": {"[1]": {"tested_on": "isolated human blood cells", "test": "in vitro synthesis of immunoglobulins by isolated human blood cells", "type": "cell-based"}, "peritonitis in rats": {"tested_on": "peritonitis in rats", "test": "acute exudative inflammation (peritonitis) caused by intraperitoneal injection of acetic acid, rats", "type": "in vivo", "details": "8 mg/kg", "description": "(§1) The evaluation of the anti-inflammatory activity for Boswellik has been carried out in a model of the acute inflammatory process—peritonitis—in rats and mice, caused by the intraperitoneal injection of acetic acid."}, "[2]": {"tested_on": "formalin-induced arthritis in rabbits", "test": "formalin-induced arthritis in rabbits (hematology and joint histology)", "quoted_text": "Experiments were carried out on 51 rabbits “Chinchilla” having a weight of 2800-3200 g. […] An arthritis model was caused by administration of 0.1 ml of a 2% formalin solution into the cavity of the knee joint—and a model of acute arthritis was obtained after twenty-four hours.\nThe investigated agent and diclofenac were administered according to the following regimen: for preventive purposes 4 days prior to simulation of the arthritis on time per day intragastrically via a probe and on the 4th day 4 hours prior to the administration of formalin.\nAnimals were euthanized under hexobarbital anesthesia after 3, 7 and 14 days after the induction of arthritis. Prior to beginning of the experiment and prior to euthanasia, blood was taken from the ear vein, and was used to determine hematologic parameters.\nFor a pathomorphological study, the joints were extracted together with the surrounding tissues and fixed in 10% neutral formalin."}, "nondescript mice": {"tested_on": "nondescript mice", "details": "both, mouse, in vivo", "protocol": "Diclofenac was used for the comparison of the therapeutic activity of Boswellik. Studies were performed on both male and female nondescript mice after oral administration of the preparations."}, "peritonitis in mice": {"tested_on": "peritonitis in mice", "test": "acute exudative inflammation (peritonitis) caused by intraperitoneal injection of acetic acid, mice", "type": "in vivo", "details": "8 mg/kg", "description": "as §1"}, "[3]": {"details": "diclofenac 8 mg/kg, present agent 250 mg/kg"}, "[4]": {"details": "diclofenac 8 mg/kg, present agent 250 mg/kg, all observation periods"}}, "data": [{"smiles": "O=C(O)Cc1ccccc1Nc1c(Cl)cccc1Cl", "note": "[Diclofenac]", "values": [{"measurement": "influence on the synthesis of immunoglobulins", "setting": "[1]", "result": "specific immunomodulating influence on the synthesis of immunoglobulins"}, {"measurement": "influence on the volume of the inflammatory exudate in the abdominal cavity", "setting": "peritonitis in rats; compared with Boswellik 100 and 130 mg/kg, rats and mice", "result": "considerably weaker influence"}, {"measurement": "Degree of the anti-exudative effect A = [Ro − Rk]/Rk100%", "setting": "peritonitis in rats; rats", "result": 24, "unit": "%"}, {"measurement": "Volume of the peritoneal exudate", "setting": "peritonitis in rats; rats, n = 10", "result": "3350 ± 220", "unit": "µL"}, {"measurement": "histological study of the joints, first observation", "setting": "[2]; 3 days after the beginning (time printed for present agent only)", "result": "inflammatory and destructive changes were observed"}, {"measurement": "histological study of the joints, 7 days", "setting": "[2]; 7 days", "result": "articulate surfaces had uneven outlines"}, {"measurement": "histological study of the joints, 14 days", "setting": "[2]; 14 days", "result": "surface of articulate cartilages was smoothed down"}, {"measurement": "time until inflammatory process calmed down / destructive changes in articulate cartilages were reduced", "setting": "[2]; diclofenac 8 mg/kg (most of the animals), present agent 250 mg/kg", "result": 14, "unit": "days"}, {"measurement": "average content of hemoglobin in the erythrocyte", "setting": "[2]; [3]", "result": "decreased"}, {"measurement": "number of monocytes", "setting": "[2]; [3]", "result": "not changed"}, {"measurement": "number of erythrocytes and hemoglobin in the peripheral blood", "setting": "[2]; diclofenac 8 mg/kg, present agent 250 mg/kg, intragastric, vs initial level", "result": "substantially reduced"}, {"measurement": "number of granulocytes", "setting": "[2]; [4]", "result": "increased"}, {"measurement": "number of leukocytes", "setting": "[2]; [4]", "result": "insignificantly reduced"}, {"measurement": "level of thrombocytes", "setting": "[2]; diclofenac 8 mg/kg, present agent 250 mg/kg, entire period of the study", "result": "decrease"}, {"measurement": "hematocrit", "setting": "[2]; diclofenac 8 mg/kg, present agent 250 mg/kg, whole period of observation", "result": "reduced"}, {"measurement": "safety index (ratio of ulcerogenicity/efficacy)", "setting": "nondescript mice", "result": "4.3-9.9"}, {"measurement": "Degree of the anti-exudative effect A = [Ro − Rk]/Rk100%", "setting": "peritonitis in mice", "result": 85, "unit": "%"}, {"measurement": "Volume of the peritoneal exudate", "setting": "peritonitis in mice; n = 10", "result": "37 ± 2", "unit": "µL"}]}]}
